Source: article PMC10475101, “Selective steroidogenic cytochrome P450 haem iron ligation by steroid-derived isonitriles” (Communications Chemistry, 2023)
Entries after “also recorded” stand apart in the source; their conditions may differ.

Columns and labels:
[1] = target: T1, CYP3A4 (Homo sapiens, UniProt P08684); test: in vitro; assay type: binding
T1 construct: made in house
Description: (§1) (Adapted from DeVore, et al.)[25] Ligand interaction with the heme iron was evaluated by titrating ligands into a cuvette containing purified CYP17A1[14], CYP2D6 L230D/L231R[26], or CYP3A4[27] and measured using a UV-visible scanning spectrophotometer. Enzyme was diluted to 0.2 µM in 100 mM potassium phosphate buffer (pH 7.4), 20% glycerol, and 100 mM sodium chloride and divided equally between two 5 mL cuvettes to evaluate high-affinity binding. Ligands dissolved in dimethylsulfoxide (DMSO) were added to the sample cuvette and an equal volume of DMSO to the reference cuvette. Difference spectra were recorded from 300 to 500 nm after equilibration of enzyme and ligand. Binding to the enzyme was measured as the difference in maximal and minimal absorbance: A387—A419 for pregnanolone and 3-formyl pregnanolone, and A435—A393 for compound 1 with CYP17A1; A434—A414 for compound 1 with CYP3A4 and CYP2D6. The dissociation constant and maximum spectral change were calculated using tight-binding or quadratic equation. All data fitting was accomplished using GraphPad Prism 9. Details of fitting are provided in Supplementary Information, and numerical data used to generate graphs in Figs. 2, 4 and 5 are provided in Supplementary Data 3 in Excel format.

[2] = target: CYP106A2 (Priestia megaterium, UniProt Q06069); test: Absorbance difference spectra titration of CYP106A2; assay type: binding, bacterial; settings: 1 µM CYP106A2; for difference spectrum increase / λmax on binding to CYP106A2: 393 nm = type I, 435 nm = heme Fe-isonitrile bond
CYP106A2, sequence (Q06069 whole entry): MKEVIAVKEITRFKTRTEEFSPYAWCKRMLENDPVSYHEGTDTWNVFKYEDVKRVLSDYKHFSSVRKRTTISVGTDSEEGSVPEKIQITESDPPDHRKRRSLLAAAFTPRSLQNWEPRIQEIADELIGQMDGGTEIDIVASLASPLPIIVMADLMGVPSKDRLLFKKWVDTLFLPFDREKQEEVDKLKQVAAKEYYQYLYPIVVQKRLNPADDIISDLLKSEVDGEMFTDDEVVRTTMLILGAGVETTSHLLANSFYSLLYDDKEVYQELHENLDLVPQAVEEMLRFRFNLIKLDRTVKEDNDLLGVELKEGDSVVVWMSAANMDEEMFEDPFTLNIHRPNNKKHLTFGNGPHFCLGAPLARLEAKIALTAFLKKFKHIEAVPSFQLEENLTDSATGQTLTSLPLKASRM
Description: Fig. 5 CYP106A2 interaction with steroidal isonitriles. […] Maximum concentration of 2 (light blue trace) is 20 µM. […] Maximum concentration of 4 is ~10 µM (blue trace). C Overlay of 800 MHz ^1H,^15N-TROSY-HSQC spectra of ^15N-Gly-labeled CYP106A2 with levopimaric acid p-benzoquinone Diels-Alder adduct bound after reduction with sodium dithionite and treatment with carbon monoxide (red), or with 7,17-(bis)isonitrile 4 (blue) after anaerobic reduction with sodium dithionite.

[3] = target: T2, CYP17A1 (Homo sapiens, UniProt P05093); test: Ligand binding assay (UV-visible difference spectra titration); settings: for Soret peak after titration (heme spectral shift from 417 nm water-bound): ferric CYP17A1, 430 nm = Fe—C isonitrile bond, 424 nm = type II Fe—N
T2 construct: made in house
T2 sequence (P05093 1-508): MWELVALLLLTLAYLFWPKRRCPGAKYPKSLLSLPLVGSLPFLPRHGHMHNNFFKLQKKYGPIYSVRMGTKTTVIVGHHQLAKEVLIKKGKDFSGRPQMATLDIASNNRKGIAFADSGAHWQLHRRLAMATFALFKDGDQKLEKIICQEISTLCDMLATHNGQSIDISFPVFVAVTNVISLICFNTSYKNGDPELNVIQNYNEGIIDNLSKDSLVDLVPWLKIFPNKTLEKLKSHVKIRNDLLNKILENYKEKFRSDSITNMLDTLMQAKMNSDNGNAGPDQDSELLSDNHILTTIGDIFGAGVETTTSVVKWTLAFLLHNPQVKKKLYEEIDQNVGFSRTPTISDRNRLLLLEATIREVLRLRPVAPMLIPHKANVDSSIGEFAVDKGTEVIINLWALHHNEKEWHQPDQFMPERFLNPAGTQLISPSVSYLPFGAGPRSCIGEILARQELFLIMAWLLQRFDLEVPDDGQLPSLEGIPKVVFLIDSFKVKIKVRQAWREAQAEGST
Description: as §1

[4] = target: T3, CYP17A1 (Homo sapiens, UniProt P05093); test: biochemical
T3 construct: made in house
T3 sequence (P05093 24-508 limits assumed): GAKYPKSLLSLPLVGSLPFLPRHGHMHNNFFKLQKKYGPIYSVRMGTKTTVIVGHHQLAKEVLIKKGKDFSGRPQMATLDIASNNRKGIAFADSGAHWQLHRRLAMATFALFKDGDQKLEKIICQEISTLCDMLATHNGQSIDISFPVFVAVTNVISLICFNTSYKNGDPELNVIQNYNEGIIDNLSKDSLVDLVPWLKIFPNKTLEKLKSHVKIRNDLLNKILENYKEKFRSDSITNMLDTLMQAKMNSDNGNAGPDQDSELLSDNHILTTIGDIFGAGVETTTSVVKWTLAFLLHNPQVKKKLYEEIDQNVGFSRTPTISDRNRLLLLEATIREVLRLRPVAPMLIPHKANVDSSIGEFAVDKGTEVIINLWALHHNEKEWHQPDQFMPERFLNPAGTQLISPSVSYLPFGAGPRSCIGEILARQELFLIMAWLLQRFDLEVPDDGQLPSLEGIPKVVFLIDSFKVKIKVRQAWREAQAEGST
Description: Metabolic activity of CYP17A1 was evaluated by measuring 17α-hydroxylation of progesterone as detected by HPLC with UV detection at 240 nm. A 1:4 ratio of CYP17A1 to recombinant NADPH-cytochrome P450 reductase was mixed and incubated on ice for 20 min. […] Reaction vials were warmed to 37 °C for 3 min, then catalysis was initiated by adding NADPH to a final concentration of 1 mM. After 10 min, metabolism was quenched by adding 300 µL of 20% trichloroacetic acid and placed on ice. The reaction vials were centrifuged to pellet the precipitated protein, then the supernatant was injected onto a C18 column for HPLC identification of product. Metabolite elution was normalized to β-estradiol as an internal standard. A standard curve of known product concentrations was used to convert normalized area under curve to amount of product produced. A four-parameter variable-slope equation was used to fit the data and calculate IC50 values for inhibitors using GraphPad Prism 9.
195 Metabolic activity of CYP17A1 was evaluated by measuring 17α-hydroxylation of progesterone as detected
196 by HPLC with UV detection at 240 nm. A 1:4 ratio of CYP17A1 to recombinant NADPH-cytochrome P450
197 reductase was mixed and incubated on ice for 20 minutes. This mixture was added to buffer (50 mM Tris, pH
199 Reaction vials were warmed to 37 °C for three minutes, then catalysis was initiated by adding NADPH to a
200 final concentration of 1 mM. After 10 minutes, metabolism was quenched by adding 300 µL of 20%
201 trichloroacetic acid and placed on ice. The reaction vials were centrifuged to pellet the precipitated protein,
202 then the supernatant was injected onto a C18 column (Phenomenex, Luna, 50 x 4.6 mm) for HPLC. The 30-
203 minute HPLC method ran at 0.8 mL/min and started with a mobile phase of 60% acetonitrile, 40% water with
204 0.2% acetic acid for five minutes, in creased to 80% acetonitrile over 10 minutes, held at 80% acetonitrile for
205 five minutes, 100% acetonitrile for five minutes, then returned to 60% acetonitrile to prepare for the next
206 sample. Metabolite elution was normalized to β-estradiol as an internal standard. A standard curve of known
207 product concentrations was used to convert normalized area under curve to amount of product produced. A
208 four-parameter variable-slope equation (Y=Ymin + (Ymax-Ymin)/(1+(IC50/X)^(Hill Slope))) was used to fit the data
209 and calculate IC50 values for inhibitors using GraphPad Prism 9.

T1 sequence (P08684 whole entry): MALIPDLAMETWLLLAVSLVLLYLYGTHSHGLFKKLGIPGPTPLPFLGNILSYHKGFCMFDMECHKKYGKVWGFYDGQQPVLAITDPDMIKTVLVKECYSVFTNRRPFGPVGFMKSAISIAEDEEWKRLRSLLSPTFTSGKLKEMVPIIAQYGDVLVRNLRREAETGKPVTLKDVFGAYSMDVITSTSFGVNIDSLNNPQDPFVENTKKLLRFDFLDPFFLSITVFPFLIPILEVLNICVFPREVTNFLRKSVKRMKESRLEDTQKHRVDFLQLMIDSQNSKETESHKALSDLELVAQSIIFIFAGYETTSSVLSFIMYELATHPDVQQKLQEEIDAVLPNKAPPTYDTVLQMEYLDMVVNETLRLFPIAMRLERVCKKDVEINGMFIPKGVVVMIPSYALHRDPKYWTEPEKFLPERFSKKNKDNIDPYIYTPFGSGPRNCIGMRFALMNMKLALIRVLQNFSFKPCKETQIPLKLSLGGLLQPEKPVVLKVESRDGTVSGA

SMILES	spectral response / binding mode on CYP106A2 [2]	difference spectrum increase / λmax on binding to CYP106A2 [2]	Soret peak after titration (heme spectral shift from 417 nm water-bound) [3]	other results
CC(=O)[C@H]1CC[C@H]2[C@@H]3CC[C@H]4C[C@@H](OC=O)CC[C@]4(C)[C@H]3CC[C@]12C [3β-formyl-5α-pregnanalone, reference compound]	–	–	–	Kd fold higher than 20-(R)-1 ([1]; CYP3A4, parent steroid versus 20-(R)-1): ~ 20 fold; Kd ([1]; protein 200 nM, 5 cm cuvette, tight-binding or quadratic equation, Fig. 4B: n = 3, 95% CI 120–215 nM, read-out: dissociation constant (Kd)): ~3200 nM
[C-]#[N+][C@H]1CC[C@H]2[C@@H]3CC[C@H]4C[C@@H](OC=O)CC[C@]4(C)[C@H]3CC[C@]12C [Compound 2]	weak type I (substrate-like) blue shift	393 nm	420 nm	–
[C-]#[N+][C@H]1CC[C@H]2[C@@H]3CC=C4C[C@@H](OC=O)CC[C@]4(C)[C@H]3CC[C@]12C [Compound 3]	–	393 nm	–	–
[C-]#[N+]C1C=C2C[C@@H](OC=O)CC[C@]2(C)[C@H]2CC[C@]3(C)[C@@H]([N+]#[C-])CC[C@H]3[C@H]12 (stereo partly shown) [Compound 4]	does form an iron-isonitrile bond; also recorded: bind with the shift expected for Fe—CN—R bond formation	435 nm	–	–
C[C@]12CC[C@H](O)CC1=CC[C@@H]1[C@@H]2CC[C@]2(C)C(c3cccnc3)=CC[C@@H]12 [abiraterone]	–	–	424 nm	slope of the inhibition curve ([4]; CYP17A1 progesterone hydroxylation): 1.1; IC50 fold lower than for 1 ([4]; abiraterone versus 1): 27 fold; IC50 ([4]; triplicate, four-parameter variable-slope fit, read-out: IC50, CYP17A1 progesterone hydroxylation): 47 nM; Kd ([3]; protein 200 nM, 95% CI undefined to 3.8 nM, read-out: dissociation constant estimate (tight binding equation fit)): 0.044 nM
